# From patent publication US7247441B2, “Nucleic acid sequence and protein in addition to polypeptides coding for mannitol dehydrogenases or parts thereof and the production and use thereof in diagnosis and therapy” (Biomay Produktions- Und Handels-Aktienge Sellschaft, priority 2002, dated 2007)
# Target: T1, Cladosporium herbarum mannitol dehydrogenase (Cladosporium herbarum, UniProt P0C0Y5)
# T1 construct: the enzyme activity was determined with the traditionally purified protein; from tissue; host or cells: Cladosporium herbarum extract (ammonium sulfate precipitation, HIC, anion exchange)
# T1 sequence (P0C0Y5 whole entry): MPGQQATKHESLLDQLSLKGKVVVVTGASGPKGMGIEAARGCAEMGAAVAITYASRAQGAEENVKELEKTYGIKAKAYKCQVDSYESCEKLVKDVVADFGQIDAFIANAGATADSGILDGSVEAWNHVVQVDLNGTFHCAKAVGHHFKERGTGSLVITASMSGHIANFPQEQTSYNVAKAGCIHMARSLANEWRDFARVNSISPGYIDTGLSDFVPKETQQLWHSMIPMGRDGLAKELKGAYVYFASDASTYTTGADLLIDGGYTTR
# Test: Enzyme activity determination, absorption of NADPH at 340 nm
# Type: biochemical
# Method: The experiments reveal that the highly purified major allergen of Cladosporium herbarum is indeed a mannitol dehydrogenase which catalyzes the following metabolic reaction: Fructose+NADPH+H^+ ? mannitol+NADP^+. […] The method of the activity determination is described in example 3.
# To confirm the results according to the invention, the enzyme activity was determined with the traditionally purified protein. The absorption of NADPH was measured in a photometer at 340 nm.
# • 50 mM Tris-HCl, pH 7.5 • 0.25 mM NADPH or NADH • D-fructose or fructose-6-phosphate (0.1; 0.2; 0.4; 0.6; 0.8; 1.0; 1.2 M) • H2O to 1 ml • the reaction is started with 0.5 μl of MtDH Results: • Reaction with fructose and NADPH • No reaction with fructose-6-phosphate and NADH
Compound,activity as cosubstrate or substrate of the mannitol dehydrogenase,effect on the reaction fructose + NADPH to mannitol + NADP+
NC(=O)C1=CN([C@@H]2O[C@H](COP(=O)(O)OP(=O)(O)OC[C@H]3O[C@@H](n4cnc5c(N)ncnc54)[C@H](O)[C@@H]3O)[C@@H](O)[C@H]2O)C=CC1 [NADH],not active as cosubstrate,–
O=C(CO)[C@@H](O)[C@H](O)[C@H](O)COP(=O)(O)O [fructose-6-phosphate],not active as substrate,inhibitory effect
